Laboratory results: patent publication US11401278B2, “Macrocyclic indole derivatives” (The Broad Institute, Inc., priority 2017, dated 2022)
Structures can show the parent of a compound that is named as a salt. Where two headings read alike, the source gives them in different places.

Assays:
[1] = amine bond
AMO-1 = test: Antiproliferation assay (Assay 7), AMO-1; assay type: cell-based; conditions: CellTiter-Glo, 72 hours, several values per example, read-out: Antiproli AMO-1 [M] IC50
Procedure: (§1) Assessment of the Anti-Proliferative Effect of Compounds in Different Cell Lines
(§2) The impact of compounds on the proliferation of different cell lines was assessed using the CellTiter-Glo® Luminescent Cell Viability reagent from Promega (G7573).
(§3) In parallel, cells were plated in a reference (day 0) plate for time zero determination.
(§4) Rim wells were excluded. The cells were incubated for 72 hours in a humidified incubator at 37° C. The day 0 plate was measured by adding 30 μL/well of CTG solution (CellTiter-Glo® Luminescent Cell Viability reagent, Promega G7573) to time zero wells in the reference plate followed by a 10 minutes incubation and luminescence reading at 0.1 ms. using the PHERAstar FS microplate reader (BMG Labtech).
(§5) After 72 hours incubation, the treated plates were measured in the same way as the day 0 plate mentioned above.

SUDHL5 [2] = test: Induction of caspase-3/7 activity (Assay 4), SUDHL5; assay type: cell-based; conditions: caspase-3/7 induction, 3 hours, median
Procedure: (§6) Cellular Assays Assay 4 Induction of Caspase-3/7 Activity Upon Treatment of Cells with Selected Compounds
(§7) The BH3-domain of MCL-1 sequesters pro-apoptotic proteins, thereby inhibiting apoptosis. In contrast, MCL-1 inhibitors are expected to antagonize this effect leading to an increase in apoptosis, which can be determined by measuring the activity of caspase-3/7.
(§8) The activity of caspase-3/7 was determined in DLBCL (Diffuse large B-cell lymphoma) cell lines (SUDHL5 and SUDHL10) upon treatment with different compounds, using the Caspase-Glo® 3/7 reagent from Promega (G8092).
(§9) Rim wells were excluded. The cells were incubated for 3 hours in a humidified incubator at 37° C.
(§10) For the evaluation of the results, the background measured with “medium-only” was subtracted from all other values. […] The Bella DRC Master Sheet was used to calculate EC50s, with fixed C0=1 and CI=plateau/max induction for the reference compound.

SUDHL10 [3] = test: Induction of caspase-3/7 activity (Assay 4), SUDHL10; assay type: cell-based; conditions: caspase-3/7 induction, 3 hours, median
Procedure: as §6, §7, §8, §9, §10

SUDHL10 [4] = test: Induction of cytotoxicity (Assay 6), SUDHL10; conditions: read-out: Cytotox SUDHL10 [M] (median) IC50, CellTiter-Glo, 5 hours, SUDHL10
HMC-1-8 = test: Antiproliferation assay (Assay 7), HMC-1-8; assay type: cell-based; conditions: CellTiter-Glo, 72 hours, several values per example, read-out: Antiproli HMC-1-8 [M] IC50
Procedure: as §1, §2, §3, §4, §5

SUDHL5 [5] = test: Antiproliferation assay (Assay 7), SUDHL5; assay type: cell-based; conditions: CellTiter-Glo, 72 hours, median, read-out: Antiproli SUDHL5 [M] (median) IC50
Procedure: as §1, §2, §3, §4, §5

SUDHL5 [6] = test: Induction of cytotoxicity (Assay 6), SUDHL5; conditions: read-out: Cytotox SUDHL5 [M] (median) IC50, CellTiter-Glo, 5 hours, SUDHL5
MCL-1 = MCL-1 (Homo sapiens (Human), UniProt Q07820, K194A/K197A/R201A); test: Protein-protein interaction assay MCL-1/Noxa BH3 peptide (MCL-1 assay, TR-FRET); assay type: binding; conditions: MBP-MCL-1 / Noxa BH3 peptide, median
MCL-1, sequence (Q07820 whole entry K194A/K197A/R201A, looked up): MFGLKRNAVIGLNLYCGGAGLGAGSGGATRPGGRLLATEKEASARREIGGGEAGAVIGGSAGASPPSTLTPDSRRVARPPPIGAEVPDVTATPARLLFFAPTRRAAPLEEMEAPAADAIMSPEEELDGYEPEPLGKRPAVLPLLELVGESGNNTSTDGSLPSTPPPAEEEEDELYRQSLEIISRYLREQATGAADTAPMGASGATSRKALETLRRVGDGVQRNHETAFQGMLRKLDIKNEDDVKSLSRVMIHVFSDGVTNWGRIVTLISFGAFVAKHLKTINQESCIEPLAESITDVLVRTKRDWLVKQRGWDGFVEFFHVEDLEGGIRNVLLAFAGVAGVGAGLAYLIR
Procedure: Protein-Protein Interaction Assay: MCL-1/Noxa BH3 Peptide (MCL-1 Assay)
The dose-dependent inhibition by the compounds described in this invention of the interaction between MCL-1 and the BH3 domain of Noxa (both human) was determined using a steady state binding competition assay with time-resolved fluorescence energy transfer (TR-FRET) readout. For that purpose MCL-1 (amino acids 173-329, N-terminal fused to Maltose Binding Protein (MBP) SEQ ID 1) and a synthetic Noxa BH3-derived peptide of sequence Biotin-PEG2-PEG2-PAELEVE-Nva-ATQLRRFGDKLNFRQKLL-amide (SEQ ID 2) served as protein receptor and tracer ligand respectively. The MBP-MCL-1 was purchased from Beryllium (Bedford, Mass., USA). The expression and purification of this protein construct has been described elsewhere (DOI:10.1371/journal.pone.0125010). The Noxa BH3-derived peptide can be obtained from e.g. Biosyntan (Berlin, Germany).
In the assay 11 different concentrations of each compound (0.1 nM, 0.33 nM, 1.1 nM, 3.8 nM, 13 nM, 44 nM, 0.15 μM, 0.51 μM, 1.7 μM, 5.9 μM and 20 μM) were typically measured as duplicates in the same microtiter plate. For that, 100-fold concentrated DMSO solutions were prepared by serial dilutions (1:3.4) of a 2 mM stock solution in a clear, 384-well microtiter plate (Greiner Bio-One, Frickenhausen, Germany). From there, 50 nl were transferred in a dark test plate (Greiner Bio-One, Frickenhausen, Germany). The assay was initiated by addition of 2 μl of a 2.5-fold concentrated MBP-MCL-1 solution (usually for a 1 nM end concentration in 5 μl reaction volume) in aqueous assay buffer [50 mM Tris/HCl pH 7, 100 mM sodium chloride (NaCl), 50 mM potassium fluoride (KF), 0.005% Tween-20, 2 mM DTT, 0.1% bovine gamma globulin (BGG)] to the compounds in the assay plate. This was followed by a 10-minute incubation step at 22° C. for pre-equilibration of the putative complex between MBP-MCL-1 and the compounds. After that, 3 μl of a 1.67-fold concentrated solution (in assay buffer) consisting of Noxa BH3-derived peptide (1 nM end concentration) and TR-FRET detection reagents [1.67 nM anti-MBP-Eu cryptate and 1.67 nM streptavidin-XL665 (both from Cisbio Bioassays, Codolet, France)], were added.
The mixture was incubated in the dark for one hour at 22° C. and then overnight at 4° C. The formation of MCL-1/Noxa complexes was determined by measuring the resonance energy transfer of the anti-MBP-Eu-cryptate antibody to the streptavidin-XL665 present in the reaction. For that purpose, the fluorescence emission at 620 nm and 665 nm after excitation at 330-350 nm was measured in a TR-FRET measuring instrument, for instance a Rubystar or a Pherastar (both from BMG Lab Technologies, Offenburg, Germany) or a Viewlux (Perkin-Elmer). The ratio of the emission at 665 nm and at 622 nm was used as indicator of the amount of MCL-1/NOXA complexes present.
The resulting data (ratio) were normalized, taking 0% inhibition as the mean value of control measurements (usually 32 data points) where all reagents were included. In this case 50 nl DMSO were used instead of compounds. A 100% inhibition corresponded to the mean value of control measurements (usually 32 data points) where all reagents except MCL-1 were included. IC50 values were determined by regression analysis based on a 4 parameter equation (minimum, maximum, IC50, Hill; Y=Max+(Min−Max)/(1+(X/IC50)^HiII) using the Screener Software (Genedata).

CCOC(=O)c1c(CCCO[Si](C)(C)C(C)(C)C)c2ccc(Cl)c3c2n1CCCS(=O)(=O)N(C)Cc1nn(C)c(CC)c1-3 gave a ring closure, yield of all isomers ([1]; from CCOC(=O)c1[nH]c2c(-c3c(CN(C)S(=O)(=O)CCCCl)nn(C)c3CC)c(Cl)ccc2c1CCCO[Si](C)(C)C(C)(C)C, Cs2CO3, MeCN, 50.0 mM, 60.0 °C, 18.0 h) of 74.6%.

For CCOC(=O)c1c(CCCO[Si](C)(C)C(C)(C)C)c2ccc(Cl)c3c2n1CCCS(=O)(=O)N(C1CC1)Cc1nn(C)c(C)c1-3, the ring closure, yield of all isomers ([1]; from CCOC(=O)c1[nH]c2c(-c3c(CN(C4CC4)S(=O)(=O)CCCCl)nn(C)c3C)c(Cl)ccc2c1CCCO[Si](C)(C)C(C)(C)C, Cs2CO3, acetonitrile, 50.4 mM, 60.0 °C, 48.0 h) was 60%.

Molecule CCOC(=O)c1c(CCCO[Si](C)(C)C(C)(C)C)c2ccc(F)c3c2n1CCCS(=O)(=O)N(C)Cc1nn(C)c(C)c1-3 has a ring closure, yield of all isomers ([1]; from CCOC(=O)c1[nH]c2c(-c3c(CN(C)S(=O)(=O)CCCCl)nn(C)c3C)c(F)ccc2c1CCCO[Si](C)(C)C(C)(C)C, Cs2CO3, NaI, acetonitrile, 87.3 mM, 60.0 °C, 240.0 h) of 47.7%.

CCOC(=O)c1c(CCCO[Si](C)(C)C(C)(C)C)c2ccc(F)c3c2n1CCCS(=O)(=O)N(C)Cc1nn(C)c(CC)c1-3 gave a ring closure, yield of all isomers ([1]; from CCOC(=O)c1[nH]c2c(-c3c(CN(C)S(=O)(=O)CCCCl)nn(C)c3CC)c(F)ccc2c1CCCO[Si](C)(C)C(C)(C)C, Cs2CO3, acetonitrile, 50.0 mM, 60.0 °C, 72.0 h) of 55.2%.

CCOC(=O)c1c(CCCOc2cccc3cc(F)ccc23)c2ccc(Cl)c3c2n1CCCS(=O)(=O)N(C)C(CCN1CCOCC1)c1nn(C)c(C)c1-3 (stereo not drawn) gave a ring closure, yield of all isomers ([1]; from CCOC(=O)c1[nH]c2c(-c3c(C(CCN4CCOCC4)N(C)S(=O)(=O)CCCCl)nn(C)c3C)c(Cl)ccc2c1CCCOc1cccc2cc(F)ccc12, cesium carbonate, acetonitrile, 37.4 mM, 60.0 °C, 48.0 h) of 82%.

Molecule CCOC(=O)c1c(CCCOc2cccc3cc(F)ccc23)c2ccc(Cl)c3c2n1CCCS(=O)(=O)N(C)CCC(N1CCOCC1)c1nn(C)c(C)c1-3 (stereo not drawn) has a ring closure, yield of all isomers ([1]; from CCOC(=O)c1[nH]c2c(-c3c(C(CCN(C)S(=O)(=O)CCCCl)N4CCOCC4)nn(C)c3C)c(Cl)ccc2c1CCCOc1cccc2cc(F)ccc12, Cs2CO3, acetonitrile, 40.7 mM, 60.0 °C, 48.0 h) of 63.7%.

CCOC(=O)c1c(CCCOc2cccc3cc(F)ccc23)c2ccc(Cl)c3c2n1CCCS(=O)(=O)N(C1CC1)Cc1nn(C)c(CC)c1-3 showed a ring closure, yield of all isomers ([1]; from CCOC(=O)c1[nH]c2c(-c3c(CN(C4CC4)S(=O)(=O)CCCCl)nn(C)c3CC)c(Cl)ccc2c1CCCOc1cccc2cc(F)ccc12, cesium carbonate, acetonitrile, 47.2 mM, 60.0 °C, 16.0 h) of 91%.

For CCOC(=O)c1c(CCCOc2cccc3cc(F)ccc23)c2ccc(Cl)c3c2n1CCCS(=O)(=O)N(CC)Cc1nn(C)c(CC)c1-3, the ring closure, yield of all isomers ([1]; from CCOC(=O)c1[nH]c2c(-c3c(CN(CC)S(=O)(=O)CCCCl)nn(C)c3CC)c(Cl)ccc2c1CCCOc1cccc2cc(F)ccc12, cesium carbonate, acetonitrile, 50.9 mM, 60.0 °C, 48.0 h) was 73%.

CCOC(=O)c1c(CCCOc2cccc3cc(F)ccc23)c2ccc(Cl)c3c2n1CCCS(=O)(=O)N(CCN1CCOCC1)Cc1nn(C)c(CC)c1-3 showed a ring closure, yield of all isomers ([1]; from CCOC(=O)c1[nH]c2c(-c3c(CN(CCN4CCOCC4)S(=O)(=O)CCCCl)nn(C)c3CC)c(Cl)ccc2c1CCCOc1cccc2cc(F)ccc12, cesium carbonate, acetonitrile, 50.3 mM, 40.0 °C, 48.0 h) of 90.3%.

Work on CCOC(=O)c1c(CCCOc2cccc3cc(F)ccc23)c2ccc(Cl)c3c2n1CCCS(=O)(=O)N(Cc1ccc(OC)cc1OC)Cc1nn(C)c(C)c1-3 yielded a ring closure, yield of all isomers ([1]; from CCOC(=O)c1[nH]c2c(-c3c(CN(Cc4ccc(OC)cc4OC)S(=O)(=O)CCCCl)nn(C)c3C)c(Cl)ccc2c1CCCOc1cccc2cc(F)ccc12, cesium carbonate, acetonitrile, 51.5 mM, 60.0 °C, 16.0 h) of 48%.

In the case of CCOC(=O)c1c(CCCOc2cccc3ccccc23)c2cccc3c2n1CCCS(=O)(=O)N(C)C(CCN1CCOCC1)c1nn(C)c(C)c1-3 (stereo not drawn), the ring closure, yield of all isomers ([1]; from CCOC(=O)c1[nH]c2c(-c3c(C(CCN4CCOCC4)N(C)S(=O)(=O)CCCCl)nn(C)c3C)cccc2c1CCCOc1cccc2ccccc12, Cs2CO3, acetonitrile, 49.6 mM, 60.0 °C, 48.0 h) is reported as 99.7%.

In the case of CCOC(=O)c1c(CCCOc2cccc3ccccc23)c2cccc3c2n1CCCS(=O)(=O)N(CCCN1CCCC1=O)Cc1nn(C)c(CC)c1-3, the ring closure, yield of all isomers ([1]; from CCOC(=O)c1[nH]c2c(-c3c(CN(CCCN4CCCC4=O)S(=O)(=O)CCCCl)nn(C)c3CC)cccc2c1CCCOc1cccc2ccccc12, NaH, DMF, 25.1 mM, 60.0 °C, 22.0 h) is reported as 80.5%.

Work on CCOC(=O)c1c(CCCOc2cccc3ccccc23)c2cccc3c2n1CCCS(=O)(=O)N(CCN1CCCCC1)Cc1nn(C)c(CC)c1-3 yielded a ring closure, yield of all isomers ([1]; from CCOC(=O)c1[nH]c2c(-c3c(CN(CCN4CCCCC4)S(=O)(=O)CCCCl)nn(C)c3CC)cccc2c1CCCOc1cccc2ccccc12, NaH, DMF, 25.0 mM, 60.0 °C, 21.0 h) of 69%.

CCc1c2c(nn1C)CN(C1CC1)S(=O)(=O)CCCn1c(C(=O)O)c(CCCOc3cccc4cc(F)ccc34)c3ccc(Cl)c-2c31 (single isomer, unassigned; enantiomer 2) [Example 55, (+)-4-chloro-14-cyclopropyl-3-ethyl-7-{3-[(6-fluoronaphthalen-1-yl)oxy]propyl}-2-methyl-13,13-dioxo-10,11,12,13,14,15-hexahydro-2H-13lambda^6-pyrazolo[3′,4′:4,5][1,2,8]thiadiazacycloundecino[6,7,8-hi]indole-8-carboxylic acid N-ethylethanamine Salt (Enantiomer 2)] gave an IC50 (AMO-1) of over 3.3e-05 M, an EC50 (SUDHL5 [2]) of 8.9 µM and an EC50 (SUDHL10 [3]) of 13 µM. The IC50 (SUDHL10 [4]) was 1.3e-05 M, the IC50 (HMC-1-8) was 2.1e-05 M and the IC50 (SUDHL5 [5]) was 1.1e-05 M. It also gave an IC50 (SUDHL5 [6]) of 8.2e-06 M and an IC50 (MCL-1) of 0.016 µM.
